Measured values reported in patent US10413562B2, “Compositions and methods for the production of pyrimidine and pyridine compounds with BTK inhibitory activity” (Merck Patent GmbH, priority 2011, dated 2019).

Assays:
PBMC = test: Time dependent PBMC IC50 assay; type: cell-based
Experimental: Compounds described by embodiments of the present invention were assayed using a time dependent PMBC assay.

NZB/W F1 mice = test: Interferon-alpha accelerated systemic lupus erythematosus (SLE) mouse model; type: in vivo; settings: ADV-IFN-alpha accelerated SLE, oral daily 0.1, 0.3, 1 or 3 mg/kg from day 14
Experimental: 1-(4-(((6-amino-5-(4-phenoxyphenyl)pyrimidin-4-yl)amino)methyl)piperidin-1-yl)prop-2-en-1-one, designated as “CPD. B”, was evaluated in an interferon-alpha accelerated SLE mouse model. NZB/W F1 mice received i.v. injection at day 0 and day 1 of 10^8 infectious units of adenovirus (ADV-IFN-α) to deliver a transient overexpression on interferon alpha. Oral dosing of the different group treatments was initiated on day 14 and continued daily at 24 hour intervals until the end of the study. Treatment groups consisted of 20% Kleptose HPB in Na-citrate buffer (vehicle) or 0.1, 0.3, 1, or 3 mg/kg of Cpd. […] As shown in Panel 1B Cpd. […] FIG. 2 presents data from another interferon-alpha accelerated SLE experiment in mice. NZB/W F1 mice received i.v. injections at day 0 and day 1 of 10^8 infectious units of adenovirus (ADV-IFN-α) to deliver a transient overexpression on interferon alpha. Oral dosing of the different group treatments (n=10) was initiated on day 14 and continued daily at 24 hour intervals until the end of the study. Treatment groups consisted of 20% Kleptose HPB in Na-citrate buffer (vehicle), 0.1, 0.3, 1, or 3 mg/kg of Cpd. B or Cell Cept®. […] Statiscal analysis was performed using Two way ANOVA with Bonferroni post test with all groups compared to vehicle treated group (*=p<0.05, **=p<0.01, ***=p<0.001).

| Compound | IC50 (PBMC) [nM] | disease activity (NZB/W F1 mice) |
| --- | --- | --- |
| C=CC(=O)N1C2CCC1CC(CNc1ncnc(N)c1-c1ccc(Oc3ccccc3)cc1)C2 (centres unmarked) [Compound A48, 1-(3-(((6-amino-5-(4-phenoxyphenyl)pyrimidin-4-yl)amino)methyl)-8-azabicyclo[3.2.1]octan-8-yl)prop-2-en-1-one] | < 1000 |  |
| C=CC(=O)N1CCC(CNc2ncnc(N)c2-c2ccc(Oc3ccccc3)cc2)CC1 [Cpd. B, 1-(4-(((6-amino-5-(4-phenoxyphenyl)pyrimidin-4-yl)amino)methyl)piperidin-1-yl)prop-2-en-1-one] |  | reduces the disease activity in a dose-dependent manner |
